Blank lines part the entries; values can stand above or below the molecule they belong to. Where a SMILES comes first, the peptide text is derived from it. The star is where a group is joined. Cbz = O=C(OCc1ccccc1)*; CH2F = FC*
What was measured:
[1] = test system: genes associated with SC lipid pathways, Dermaquant model keratinocytes and fibroblasts; test: Transcriptional profiling (Affymetrix U133A plus 2) in aged-equivalent skin culture; type: cell-based, human; conditions: 0.1% Hexamidine vs vehicle (water), 4-48 hours
Description: The Experimental design is set forth in Table I. Cultures were treated and harvested at indicated time points. Total RNA extraction, labeling and hybridization to AffymetrixTM U133A plus 2 gene chips were conducted. Data were subjected to normalization and statistical analysis.

Aquaporin 3 = test: Multiplex mRNA analysis (Panomics QuantiGene Plex) in keratinocytes; type: cell-based; conditions: neonatal human keratinocytes, 24 hours, vs no treatment
Description: A multiplex mRNA analysis was conducted. RNA was isolated from neonatal human keratinocytes. Neonatal human keratinocytes (Cascade Biologics # C-001-5C) were grown to 40% confluence in 6-well tissue culture plates then treated with compounds for 24 hours (3 replicates per treatment). The treatments included several concentrations of Hexamidine, Niacinamide, and /or Pentanediol. Additionally, 0.00194% (100 μM) caffeine and no-treatment controls were performed.
Several targets were measured with Panomics QuantiGene Plex Assay kit, a multi-analyte quantitative bead-based assay. The fluorescence intensity values, measured by a Bio-Rad Bio-Plex 100 instrument, for those samples yielding sufficient RNA are shown for Aquaporin 3, CDD44 antigen, and Claudin 1. Also measured were Glyceraldehyde-3-phosphate dehydrogenase, Collagen 1α2, Filaggrin, Serine palmitoyltransferase, Interleukin 1,3-hydroxy-3methylglutaryl-coenzyme A reductase, and Interferon gamma.

cornification = conditions: after barrier disruption; cited from earlier work
Epiderm 201 cultures = test: TEWL (evaporimeter) in epidermal cultures; type: cell-based, human; conditions: 1% Niacinamide, 24 hour treatment
Excerpt: Biomarker endpoints and certain clinical skin instrumental measurements, such as those used for skin barrier determinations, can be detected in skin equivalent cultures. As noted above, the stratum corneum barrier consists of flattened, terminally differentiated corneocytes surrounded by specialized lamellar lipids, which act to retard loss of water from the skin's surface. Water loss can be measured functionally by use of an evaporimeter instrument wherein the endpoint measured is TEWL, and is expressed in units of grams of water per skin per hour. In one validity test the present inventors took epidermal cultures from a commercial supplier (Epiderm 201 cultures from MatTek Corp., Ashland Mass.) grew them in cultures for four days whereby the number of differentiated cell layers and stratum corneum thickness was increased during this period. […] These findings indicate that in vitro epidermal constructs form a functional water barrier that can be enhanced by compounds such as Niacinamide.

gene encoding rate limiting enzyme in biosynthesis of cholesterol (HMGCR) [1]: up-regulation
gene encoding rate limiting enzyme in biosynthesis of fatty acid (ACACA) [1]: up-regulation
gene encoding rate limiting enzyme in biosynthesis of sphingolipid (SPTLC1/2) [1]: up-regulation
Molecule: N=C(N)c1ccc(OCCCCCCOc2ccc(C(=N)N)cc2)cc1 [Hexamidine, 4,4′-(hexamethylenedioxy)dibenzenecarboximidamide]
cellular cholesterol and fatty acid uptake mechanisms [1]: up-regulation
expression of gene involved in LB formation (ABCAl2) [1]: Increased expression
expression of gene involved in LB secretion (ABHD5) [1]: Increased expression
mitochondrial cholesterol and fatty acid utilization pathways [1]: down-regulation
transcriptional activators of genes involved in lipid metabolism [1]: up-regulation
Aquaporin 3 expression (Aquaporin 3): upregulated

Molecule: COC(=O)C[C@H](NC(=O)[C@H](C)NC(=O)[C@@H](NC(=O)OCc1ccccc1)C(C)C)C(=O)CF [Z-VAD-FMK] (Cbz-Val-Ala-Asp(OMe)-CH2F)
cornification (cornification): delays

Molecule: NC(=O)c1cccnc1 [Niacinamide]
TEWL levels (Epiderm 201 cultures): reduced further

Molecule: Pentanediol
Aquaporin 3 expression (Aquaporin 3): upregulated

Reference: patent US20110262025A1, “Cosmetic Compositions and Methods for Maintaining and Improving Barrier Function of the Stratum Corneum and to Reduce the Visible Signs of Aging in Skin” (priority 2010, published 2011)
